For one compound, IC50 results are on record in article PMC3639044 (Molecular Biology of the Cell, 2013).

In this experiment the target is T1, TbPLK^as (analogue-sensitive Trypanosoma brucei Polo-like kinase) (Trypanosoma brucei, UniProt Q57VI0, C57V/L118G).
T1 sequence (Q57VI0 1-768 C57V/L118G): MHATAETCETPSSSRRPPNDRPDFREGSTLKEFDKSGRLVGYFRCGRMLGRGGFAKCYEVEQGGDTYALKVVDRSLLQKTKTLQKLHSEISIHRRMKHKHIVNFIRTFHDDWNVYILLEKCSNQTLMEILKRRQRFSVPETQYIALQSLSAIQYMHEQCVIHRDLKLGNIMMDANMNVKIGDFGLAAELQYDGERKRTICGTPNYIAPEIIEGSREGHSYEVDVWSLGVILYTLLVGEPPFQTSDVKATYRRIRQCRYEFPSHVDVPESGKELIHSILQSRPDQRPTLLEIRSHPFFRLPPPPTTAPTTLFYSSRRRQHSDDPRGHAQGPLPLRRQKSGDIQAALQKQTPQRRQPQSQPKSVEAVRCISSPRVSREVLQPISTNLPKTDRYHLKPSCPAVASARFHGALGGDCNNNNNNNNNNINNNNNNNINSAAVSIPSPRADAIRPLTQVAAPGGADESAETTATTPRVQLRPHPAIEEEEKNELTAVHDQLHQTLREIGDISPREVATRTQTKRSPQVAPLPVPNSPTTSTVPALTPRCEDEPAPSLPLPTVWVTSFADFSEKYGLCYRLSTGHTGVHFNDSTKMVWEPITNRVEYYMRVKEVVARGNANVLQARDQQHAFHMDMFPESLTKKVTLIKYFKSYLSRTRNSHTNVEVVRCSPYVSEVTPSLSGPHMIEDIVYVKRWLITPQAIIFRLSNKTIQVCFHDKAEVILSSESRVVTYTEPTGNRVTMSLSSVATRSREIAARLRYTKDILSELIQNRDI
The format is biochemical.

For `Cc1cccc(Cc2nn(C(C)(C)C)c3ncnc(N)c23)c1` [3MB-PP1], the half-inhibitory concentration (IC50) is ~250 nM.

A word on the IC50: it is the midpoint of a concentration-inhibition curve. Higher therefore signals weaker potency.
